Experimental data published in patent US20250282761A1, “SALT AND CRYSTAL FORMS OF AN EPIDERMAL GROWTH FACTOR RECEPTOR INHIBITOR” (Blueprint Medicines Corporation, priority 2022, published 2025).
Structures can show the parent of a compound that is named as a salt.

Assay: Pharmacokinetics following oral (PO) administration to male beagle dogs
Format: in vivo
Details: single 30 mg/kg PO (free base equivalent)
Method: Male beagle dogs (3 in each treatment group) were administered orally 30 mg/kg of Compound (I) free base or mesylate salt of Compound (I) in a dose equivalent to 30 mg/kg of free base. The free base and the mesylate salt were suspended/dissolved in an appropriate volume of vehicle solution containing 0.5% hydroxypropyl methylcellulose (w/v) with 0.2% Tween 80 (v/v) in deionized water. The PO doses were administered into the stomach via syringe and gavage tube followed by a 5 mL water flush. Dose volumes were adjusted for the weight of the animal on the morning of dose administration. Blood samples were collected at 0, 0.5, 1, 2, 4, 6, 8, 10, 12, and 24 h postdose from an accessible vein with preference to the jugular vein. Blood samples were kept on ice until processing. All blood samples were centrifuged within 1 h of collection at 3200 RPM for 10 min at 5° C. Plasma samples were directly transferred into cluster tubes and stored at −20°±5° C. until shipment. […] Animals were fasted on the evening prior to dosing with food returned at 4 h postdose.

SMILES | appearance of animals at dose administration and blood collection time points | in vivo exposure (plasma concentration, FIG. 7) (0-24 h)
C=CC(=O)Nc1ccc(F)c(Nc2nc(Nc3cnn(C)c3)ncc2-c2ccc(C(F)(F)F)cc2)c1 [Compound (I) free base, N-(4-fluoro-3-((2-((1-methyl-1H-pyrazol-4-yl)amino)-5-(4-(trifluoromethyl)phenyl)pyrimidin-4-yl)amino)phenyl)acrylamide] | appeared normal | –
C=CC(=O)Nc1ccc(F)c(Nc2nc(Nc3cnn(C)c3)ncc2-c2ccc(C(F)(F)F)cc2)c1 [mesylate salt of Compound (I)] | – | higher in vivo exposure
